Data on eight molecules can be found in patent US20240099295A1, “CELL TREATMENT AGENT” (AYA Inc., priority 2021, published 2024).

Format in all cases: cell-based
In test [1] the test system is Rat corneal epithelial cell. The test is described as follows: Cell protective effect: cell survival during preservation (trypan blue excretion test). Particulars: for Average survival rate after preservation for 24 hours / Average survival rate at 24 hours: normal temperature (22° C.); for Average survival rate after preservation for 7 days / Average survival rate at 72 hours: refrigerator 4° C. How it is done:
(§1) Using a normal serum-free cell culture solution without FBS or a Ringer's solution (Otsuka Pharmaceutical Co., Ltd., Lactec Injection, Japanese Pharmacopoeia, Sodium L-lactate Ringer's solution) as a conditioning solution for use, for example, in preservation and transportation of cells, sodium alginate (Na alginate) (Fuji Chemical Industry Co., Ltd. Snow Algin SSL, viscosity of 1% aqueous solution is 30 mPa·s at 20° C.) was added to the conditioning solution in the concentrations shown in Table 1 to prepare cell preservation solutions. To each cell preservation solution, the above-described cells were added at a concentration of 10^6 cells/ml to satisfy the conditions shown in Table 1, and the resultant solution was left to stand in a room at normal temperature (22° C.) for 24 hours, and then whether cells were alive or dead was determined, and rates of viable cells (average survival rate (%)) were calculated and compared. Cell viability was determined by the trypan blue excretion test that is the ordinary method of confirming cell viability. The excretion test was performed according to the method described in “Denizot F., et al., Rapid colorimetric assay for cell growth and survival. Modifications to the tetrazolium dye procedure giving improved sensitivity and reliability. J. Immunol. Methods, 89, 271-277 (1986)”. The results are of N=4.
(§2) The average survival rate (%) was determined in the same manner as in Experimental Example (1-1-1) except that the preservation conditions were changed to leaving still for 72 hours in a refrigerator at a set temperature of 4° C. The results are of N=4.
The average survival rate (%) of cells was determined in the same manner as in Experimental Example (1-1-1) except that dextran sulfate (dextran sulfate special grade reagent available from NACALAI TESQUE, INC.) was used instead of sodium alginate and the conditions were as shown in Table 3. The results are of N=4.
The average survival rate (%) of cells was determined in the same manner as in Experimental Example (1-2-1) except that the preservation conditions were changed to leaving still for 72 hours in a refrigerator at a set temperature of 4° C. and to conditions shown in Table 4. The results are of N=3 in the case of using a serum-free cell culture solution, and are of N=4 in the case of using a Ringer's solution.
The average survival rate (%) of cells was determined in the same manner as in Experimental Example (1-1-1) except that heparin sodium (Heparin Na Mochida, unfractionated heparin, available from Mochida Pharmaceutical Co., Ltd.) was used instead of alginic acid and the conditions were as shown in Table 5. The results are of N=4.
The average survival rate (%) of cells was determined in the same manner as in Experimental Example (1-3-1) except that the preservation conditions were changed to leaving still for 72 hours in a refrigerator at a set temperature of 4° C. and to conditions shown in Table 6. The results are of N=4.
The average survival rate (%) of cells was determined in the same manner as in Experimental Example (1-3-2) except that urinastatin (Miraclid injection solution, containing 2.5 million units, available from Mochida Pharmaceutical Co., Ltd.) was used as a proteolytic enzyme inhibitor instead of heparin sodium and the conditions were as shown in Table 7. The results are of N=4. “Unit (U)” in the unit of concentration (units/mL) of inhibitor a in Table 7 can be measured, for example, by the quantitative method of urinastatin in the Japanese Pharmacopoeia 15th revision. Specifically, absorbance at 405 nm of a sample solution is measured with a UV 240 spectrophotometer, and concentration of urinastatin can be calculated from a calibration curve prepared in advance. […]

For test [2], the system named is Chinese hamster fibroblast. Described as above. To be noted: for Average survival rate at 24 hours / Average survival rate at 72 hours: Ringer's solution; for Average survival rate at 24 hours: normal temperature (22° C.); for Average survival rate at 72 hours: refrigerator 4° C. As for the experimental part: as §1, §2
Test [3] has as its system rat corneal epithelial cells. The test can be described thus: Cell detaching and suspending effect (Experimental Example 4). Particulars: dextran aqueous solution (MW 35000-50000), concentrations shown in Table 13; observed over time. As for the experimental part:
A culture solution in which FBS was added to a normal serum-free cell culture solution in a concentration of 10% (10% FBS cell culture solution) was prepared in a culture dish. To this, rat corneal epithelial cells were added at 10^6 cells/ml and cultured for 24 hours under normal cell culture conditions (37° C., CO2 concentration of 5%, humidity of 100%) to make the cultured cells fully adhere to the culture dish wall which is a scaffold.
The culture solution in the culture dish on which cultured cells obtained as described above had adhered was replaced with each of dextran sulfate aqueous solutions and a dextran aqueous solution, which are respectively obtained by dissolving dextran sulfate (Dextran sodium sulfate MW 36000-50000, available from FUJIFILM Wako Pure Chemical Corporation) and dextran (Dextran MW 35000-50000, available from FUJIFILM Wako Pure Chemical Corporation) in purified water and have concentrations shown in Table 13, and the resultant culture solutions were continuously cultured under normal cell culture conditions (37° C., CO2 concentration of 5%, humidity of 100%). For each adherent cell, detachment and suspension of adherent cells from the dish wall was observed over time. For determination of detachment and suspension, the culture dish was gently shaken manually to observe whether the cells were detached from the dish wall and suspended, and the case where 90% or more of the cells were detached and suspended was determined as detachment and suspension of adherent cells. The results are of N=4. In Table 13, “∘” means that the cells were detached and suspended, and “x” means that the cells were not detached and suspended.

The subject of test [4] is Rat corneal epithelial cell. The test is described as follows: Cell dormancy effect: cell cycle analysis by flow cytometry. To be noted: Na alginate 2.5 mg/mL (Wako first grade, 120 mPa·s); serum-free cell culture solution; cultured 48 hours at 37° C. As for the experimental part: Sodium alginate (sodium alginate first grade reagent, available from FUJIFILM Wako Pure Chemical Corporation, viscosity of 1% aqueous solution is 120 mPa·s at 20° C.), DS (the same as in Experimental Example 1), or sodium heparin (the same as in Experimental Example 1) was used as an active ingredient in the cell treatment agent, and whether cell dormancy occurs or not by action of the active ingredient was examined by comparing the activities of cell division and proliferation which are the most general cell activities in the following manner.
The cell cycle was analyzed by flow cytometry according to the method described in known literature (Piotr Pozarowski and Zbigniew Darzynkiewicz, “Analysis of Cell Cycle by Flow Cytometry,” Methods in Molecular Biology, vol. 281: Checkpoint Controls and Cancer, Volume 2), and frequency of cell division and proliferation was compared between different active ingredients of the cell treatment agent. A specific method is as follows. Using a normal serum-free cell culture solution as a conditioning solution (comparison reference (a)), (b) a cell preservation solution in which sodium alginate (Na alginate) is added to the conditioning solution in a concentration of 2.5 mg/ml, (c) a cell preservation solution in which DS is added to the conditioning solution in a concentration of 0.1 mg/ml, and (d) a cell preservation solution in which heparin sodium (heparin Na) is added to the conditioning solution in a concentration of 50 units/ml, were prepared. To these cell preservation solutions, rat corneal epithelial cells were added at a cell concentration of 10^5 cells/ml and cultured for 48 hours under normal cell culture conditions (37° C., CO2 concentration of 5%, humidity of 100%). The number of cells in each culture was determined by cell cycle analysis using flow cytometry to determine the number of cells in each cell cycle, and the percentage of cells in the S phase, G2 phase, and M phase, which are considered as the periods of the cell division and proliferation process, was compared with the percentage of cells in the G0 phase and G1 phase, which are considered as other periods. The results are of N=4.
(A flow cytometer gives signals particle by particle.)

For test [5], the system named is Mouse malignant melanoma highly metastatic strain cell. The test is described as follows: Cell protective effect: cell survival during preservation under refrigeration (trypan blue excretion test). To be noted: inhibitor b 0.25 mg/mL; 5% glucose solution; refrigerator 4° C. How it is done:
Using a 5% glucose solution as a conditioning solution, nafamostat mesilate (Fusan for Injection, available from Nichi-Iko Corporation), which is a proteolytic enzyme inhibitor, was added to the conditioning solution in the concentrations shown in Table 8 (in Fusan for Injection (available from Nichi-Iko Corporation), use of a 5% glucose solution as a dilution solution is specified) to prepare cell preservation solutions. To each cell preservation solution, cells of mouse malignant melanoma high metastatic strain were added at a concentration of 10^6 cells/ml and left in a refrigerator set at 4° C. for 48 hours, and then the average survival rate (%) of cells was determined in the same manner as in Experimental Example of (1-4-1-1). The results are of N=4.

Setting [6] is: Sodium alginate 0.5 mg/ml, Ringer's solution.
[7] abbreviates: Sodium alginate 2.5 mg/ml, Ringer's solution.
[8] abbreviates: Na alginate 0.63 mg/mL, Ringer's solution.
Where [9] appears, read: Na alginate 0.63 mg/mL, serum-free cell culture solution.
The mark [10] stands for this setting: Na alginate 2.5 mg/mL, Ringer's solution.
[11] abbreviates: Na alginate 2.5 mg/mL, serum-free cell culture solution.
Setting [12] is: Na alginate 5 mg/mL, serum-free cell culture solution.
Setting [13] is: Sodium alginate 50 mg/ml, Ringer's solution.

In the case of “sodium alginate [Sodium alginate 120 mPa · s (1% aqueous solution, 20° C.)]”, the “Average survival rate after preservation for 24 hours” value (shortened to “Average survival rate … for 24 hours”) in test [1] (Sodium alginate 0.1 mg/ml, Ringer's solution) was found to be 62%; in test [1] (setting [7]) it was 59%. Also, the “Average survival rate after preservation for 7 days” value (“Average survival rate … for 7 days” below) amounted to 53% in test [1] (setting [6]) and 52% in test [1] (setting [7]).

In the case of “low molecular weight heparin sodium [reference compound]”, the “Effect of improving cell viability (cell protective effect)” value was “the cell protective effect was observed” in test [1] (rat corneal epithelial cells, same experiment as for heparin sodium, values not given) and “the cell protective effect was observed” in test [2] (Chinese hamster fibroblasts, same preservation experiments, values not given).

On to dextran [reference compound], for which the “Detachment and suspension of adherent cells after replacement” value in test [3] is “not detached and suspended in any of the cases”.

Consider sodium alginate [Na alginate], for which the “Average survival rate at 24 hours” value is listed as 52% in test [1] (setting [8]); 60% in test [1] (setting [9]); 51% in test [1] (Na alginate 1.25 mg/mL, Ringer's solution); 53% in test [1] (setting [10]); 70% in test [1] (setting [11]); 74% in test [1] (setting [12]). Besides, the “Average survival rate at 24 hours” value in test [2] (Na alginate 0.63 mg/mL) worked out at 56%; in test [2] (Na alginate 1.25 mg/mL), 57%; in test [2] (Na alginate 2.5 mg/mL), 60%. The “Average survival rate at 72 hours” value in test [1] (setting [8]) is reported as 68%; in test [1] (setting [9]) it was 77%; in test [1] (setting [10]), 72%; in test [1] (setting [11]), 80%; in test [1] (Na alginate 5 mg/mL, Ringer's solution) it was 64%; in test [1] (setting [12]) it was 70%. The “Average survival rate at 72 hours” value in test [2] (Na alginate 0.63 mg/mL) is 73%; in test [2] (Na alginate 2.5 mg/mL) it was 77%; in test [2] (Na alginate 5 mg/mL), 70%. Besides, in test [4], the “Percentages of cells of each cell cycle: G0 phase + G1 phase” value was determined as 88.1%. In test [4], the “Percentages of cells of each cell cycle: S phase + G2 phase + M phase” value is reported as 10.1%.

For `N=C(N)c1ccc2cc(OC(=O)c3ccc(N=C(N)N)cc3)ccc2c1` [inhibitor b, nafamostat mesilate], the “Average survival rate at 48 hours” value in test [5] amounted to 43%.

In the case of “sodium alginate [Sodium alginate 30 mPa · s (1% aqueous solution, 20° C.)]”, the “Average survival rate … for 24 hours” value in test [1] (Sodium alginate 0.2 mg/ml, Ringer's solution) is 50%; in test [1] (Sodium alginate 1 mg/ml, Ringer's solution) it was 54%. Besides, the “Average survival rate … for 7 days” value in test [1] (setting [6]) stood at 51%; in test [1] (setting [7]) it was 56%.

As to “sodium alginate [Sodium alginate 30 mPa · s (10% aqueous solution, 20° C.)]”, the “Average survival rate … for 7 days” value is listed as 54% in test [1] (setting [7]); 69% in test [1] (Sodium alginate 10 mg/ml, Ringer's solution); 72% in test [1] (setting [13]). In addition, the “Average survival rate … for 24 hours” value was 46% in test [1] (Sodium alginate 20 mg/ml, Ringer's solution) and 50% in test [1] (setting [13]).

B1: urinastatin (protein, UniProt P02760 206-352, looked up)
Inter-alpha-trypsin inhibitor …: AVLPQEEEGSGGGQLVTEVTKKEDSCQLGYSAGPCMGMTSRYFYNGTSMACETFQYGGCMGNGNNFVTEKECLQTCRTVAACNLPIVRGPCRAFIQLWAFDAVKGKCVLFPYGGCQGNGNKFYSEKECREYCGVPGDGDEELLRFSN
modifications: Inter-alpha-trypsin inhibitor light chain
For B1, in test [1] (inhibitor a 5 units/mL, Ringer's solution), the “Average survival rate at 72 hours” value was 70%.
